Consider 29 compounds from PubChem BioAssay (NCI).

What all share (assay): DTP human tumour cell line panel, 48 h
The test system of assay [1] is HS 578T breast.
Assay [2] concerns PC-3 prostate.
The test system of assay [3] is A549 NSCLC.
Assay [4] relates to SK-MEL-2 melanoma.
The test system of assay [5] is HOP-92 NSCLC.
Assay [6] relates to OVCAR-5 ovarian.
The subject of assay [7] is SNB-19 CNS.
Assay [8] has as its system BT-549 breast.
In assay [9] the test system is ACHN renal.

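Five compound concentrations were applied to cells in 96-well plates for 48 hours; endpoints were derived by simple linear interpolation of the resulting dose-response curve. TGI: total growth inhibition.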

On to `CN(/N=C/c1ccc(Cl)c(Cl)c1)C1=NCCN1`, for which the TGI is above 100 µM in assay [1]; 38.3 µM in assay [2]; above 100 µM in [3]; 43.6 µM in assay [4]; 62.6 µM in [5]; above 100 µM in assay [6]. Moreover, the TGI in assay [7] was above 100 µM; in [8] it was 95.3 µM; in assay [9], above 100 µM.
`O=C1/C(=C2\SCC(=O)N2c2ccccc2)SC(=S)N1c1ccccc1`: the total growth inhibition concentration (TGI) in assay [1] is above 100 µM; in assay [2], above 100 µM; in [3] it was above 100 µM; in assay [4], above 100 µM; in assay [5] it was 82.7 µM; in [6], above 100 µM. For the same compound, the total growth inhibition concentration (TGI) is above 100 µM in [7], above 100 µM in assay [8] and 97.7 µM in [9].
In the case of `Cc1nc2sccn2c1C(=O)OCCOCCOCCOCCOC(=O)c1c(C)nc2sccn12`, the TGI in assay [1], in assay [2], in [3], in assay [4], in [5] and in assay [6] was above 100 µM throughout. Moreover, the TGI in [7], in assay [8] and in assay [9] was above 100 µM in each case.
`OC1(c2ccc(Cl)cc2)c2ccccc2C2=NCc3ccccc3CN21` (stereo unspecified): the TGI in assay [1] worked out at 32.5 µM; in assay [2] it was 15.2 µM; in assay [3], 19.2 µM; in [4] it was 16.9 µM; in assay [5] it was 41.4 µM; in [6], 26 µM. The TGI in [7] was found to be 13.4 µM; in [8] it was 44.7 µM; in [9] it was 17.8 µM.
As to `Cc1ccc(C2(c3ccc(C)c(O)c3C)CCN(C)CC2)c(C)c1O`, the concentration for total growth inhibition (TGI) in assay [1] is above 100 µM; in [2], above 100 µM; in assay [3], above 100 µM; in assay [4] it was 75.9 µM; in assay [5] it was above 100 µM; in assay [6], above 100 µM. For the same compound, the concentration for total growth inhibition (TGI) in assay [7], in assay [8] and in assay [9] was above 100 µM each time.
On to `O=C1OC(C(O)C(O)C(O)CO)C(O)C1O` (stereo unspecified), for which the TGI in [1], in assay [2], in assay [3], in assay [4], in [5] and in assay [6] was above 100 µM in each case. Also, the concentration for total growth inhibition (TGI) in [7], in assay [8] and in [9] was above 100 µM in each case.
As to `CC12CCC(C1)C(C)(C)C2OC(=O)c1ccccc1C(=O)O` (stereo unspecified), the TGI in [1], in assay [2], in [3], in [4], in assay [5] and in assay [6] was above 100 µM in each case. For the same compound, the concentration for total growth inhibition (TGI) in assay [7], in assay [8] and in assay [9] was above 100 µM each time.
On to `CSc1nc(=O)c(C#N)c(-c2ccccc2)n1C1OC(COC(C)=O)C(OC(C)=O)C(OC(C)=O)C1OC(C)=O` (stereo unspecified), for which the concentration for total growth inhibition (TGI) in assay [1], in assay [2], in [3], in assay [4], in assay [5] and in assay [6] was above 100 µM each time. The total growth inhibition concentration (TGI) in [7], in assay [8] and in assay [9] was above 100 µM each time.
Consider `CC(C)=CCC/C(C)=C/CC/C(C)=C/CSc1ccc(Cl)cc1C(=O)O`, for which the TGI is 49.7 µM in assay [1]; 29.7 µM in [2]; 30.3 µM in assay [3]; 28.8 µM in [4]; 45.2 µM in assay [5]; 36.9 µM in assay [6]. In addition, the total growth inhibition concentration (TGI) was 34.4 µM in assay [7], 37.5 µM in assay [8] and 35.9 µM in assay [9].
For the compound `CN1CCN(c2c(O)c3c(c(O)c2Cl)C(=O)C=CC3=O)CC1`, the TGI in assay [1] was found to be 5.45 µM; in assay [2], 3.27 µM; in assay [3], 4.27 µM; in [4], 2.64 µM; in assay [5], 0.598 µM; in assay [6], 2.93 µM. Besides, the values for the total growth inhibition concentration (TGI) in assay [7], in [8] and in [9] were 6.32 µM, 1.27 µM and 0.806 µM, respectively.
Take `CC(C)C[C@H](NC(=O)[C@H](CCc1ccccc1)NC(=O)c1ccc2ccccc2n1)B(O)O`: the TGI in [1] is 0.442 µM; in [2], 1.19 µM; in assay [3], 13.4 µM; in [4] it was 0.0407 µM; in assay [5], 0.28 µM; in [6] it was 0.617 µM. For the same compound, the TGI in [7] was 13.1 µM; in [8], 0.152 µM; in assay [9] it was 0.176 µM.
For `COc1cc(C2c3cc4c(cc3OC(N3CCOCC3)C2C)OCO4)cc(OC)c1OC(C)=O` (stereo unspecified), the TGI was 25.7 µM in assay [1]; above 100 µM in [2]; above 100 µM in [3]; 41.1 µM in assay [4]; above 100 µM in assay [5]; above 100 µM in assay [6]. Further, the concentration for total growth inhibition (TGI) in assay [7] is above 46.4 µM; in [8], above 100 µM; in assay [9] it was above 100 µM.
On to `CC(C)(C)OC(=O)N1C/C=C\C(=O)C2(OCCO2)c2ccccc21`, for which the TGI in assay [1] was above 100 µM; in [2], above 100 µM; in assay [3] it was above 100 µM; in assay [4] it was 68.5 µM; in assay [5] it was 44.2 µM; in assay [6], above 100 µM. In addition, the TGI in [7] is above 100 µM; in assay [8], 51.4 µM; in [9] it was above 100 µM.
`CCOC(=O)/C=C(/C(=O)OCC)n1ccc(=O)[nH]c1=O`: the concentration for total growth inhibition (TGI) was determined as 37.9 µM in assay [1]; 26.8 µM in assay [2]; 33.8 µM in [3]; 30.4 µM in [4]; 4.32 µM in assay [5]; 14.4 µM in [6]. Further, the results for the TGI in assay [7], in assay [8] and in assay [9] were 29.8 µM, 24.9 µM and 14.6 µM, respectively.
Consider `CCOC(=O)c1ccc(NC(NC(=O)CC)(C(F)(F)F)C(F)(F)F)cc1`, for which the TGI in assay [1], in [2], in [3], in [4], in [5] and in assay [6] was above 100 µM in each case. For the same compound, the TGI in assay [7], in assay [8] and in assay [9] was above 100 µM in each case.
With `O=C(CC(=O)Nc1ccccc1Cl)NNC(Sc1ccccc1)c1cc(N=Nc2ccc(Br)cc2)ccc1O` (stereo unspecified), the TGI in assay [1] was 7.18 µM; in assay [2] it was 6.21 µM; in assay [3], above 10 µM; in [4], above 10 µM; in assay [5], 6.68 µM; in assay [6], above 10 µM. In addition, the TGI in [7] is above 10 µM; in assay [8], 5.99 µM; in assay [9] it was above 10 µM.
`O=[N+]([O-])c1ccc(-[n+]2ccc3ccccc3c2)c([N+](=O)[O-])c1`: the total growth inhibition concentration (TGI) was found to be 49.6 µM in [1]; 13.1 µM in assay [2]; 34.1 µM in assay [3]; 25.2 µM in [4]; 5.29 µM in assay [5]; 23.9 µM in assay [6]. For the same compound, the concentration for total growth inhibition (TGI) in assay [7] turned out to be 34.7 µM; in [8] it was 13.5 µM; in assay [9], 4.44 µM.
For the compound `O=C(CCC(=O)OCC1OC(O)(CC2OC(CO)C(O)C(O)C2O)C(O)C1O)OCc1ccccc1` (stereo unspecified), the TGI in [1], in [2], in [3], in assay [4], in assay [5] and in assay [6] was above 100 µM throughout. Also, the TGI in [7], in assay [8] and in assay [9] was above 100 µM throughout.
With `CC(=O)N1C(OCc2ccccc2)CCN1c1ccccc1` (stereo unspecified), the TGI in [1], in [2], in assay [3], in assay [4], in assay [5] and in assay [6] was above 10 µM throughout. Moreover, the concentration for total growth inhibition (TGI) in assay [7], in [8] and in assay [9] was above 10 µM throughout.
In the case of `O=C1CC(Cl)c2c(Cl)sc(Cl)c21` (stereo unspecified), the TGI is above 27.9 µM in assay [1]; 5.64 µM in [2]; 12.7 µM in [3]; above 25.5 µM in assay [4]; 3.44 µM in assay [5]; 34.7 µM in [6]. Further, the TGI in assay [7] is 24 µM; in assay [8], 13.3 µM; in assay [9] it was 3.45 µM.
For `Cc1nc(N)nc(N)c1N1CCN(Cc2ccccc2)CC1`, the TGI in [1], in assay [2], in [3], in [4], in assay [5] and in [6] was above 100 µM in each case. Besides, the total growth inhibition concentration (TGI) in [7], in assay [8] and in assay [9] was above 100 µM throughout.
For the compound `C=C1[C@H](OCC(C)C)[C@@H](OC(=O)C(C)CC)[C@@H](O)C(C)(C)/C=C/[C@H](C)C(=O)[C@@]2(O)C[C@H](C)[C@H](O)[C@@H]2[C@H]1OC(=O)C(C)CC` (stereo partly specified), the TGI was 10.6 µM in assay [1]; above 14.8 µM in assay [2]; above 20 µM in [3]; above 15 µM in assay [4]; above 20 µM in assay [5]; above 17.7 µM in assay [6]. Further, the TGI in assay [7] was above 20 µM; in assay [8], above 20 µM; in [9], above 13 µM.
In the case of `COc1cccc(/C=N/n2c(Cc3ccc(Cl)cc3)n[nH]c2=O)c1`, the TGI in assay [1] was 72.7 µM; in assay [2], above 100 µM; in assay [3] it was above 100 µM; in [4], 58.6 µM; in [5], 52.1 µM; in [6] it was above 100 µM. Further, the results for the concentration for total growth inhibition (TGI) in assay [7], in assay [8] and in [9] were 67.8 µM, 57.1 µM and 67.3 µM, respectively.
As to `O=C(O)C(CO)NC(=O)C1C(C(=O)O)C(c2ccccc2[N+](=O)[O-])C=C(c2ccco2)N1c1ccncc1` (stereo unspecified), the TGI in assay [1] was found to be 57.5 µM; in [2], 22.1 µM; in [3], 11.1 µM; in assay [4], 31 µM; in assay [5], 25.7 µM; in [6] it was 25.4 µM. Besides, the TGI in [7] worked out at 24.5 µM; in assay [8], 22.8 µM; in [9] it was 3.67 µM.
With `CC(C)(CN1CCCCC1)C(=O)/C=C/c1c(Cl)cccc1Cl`, the concentration for total growth inhibition (TGI) is 8.8 µM in assay [1]; 3.46 µM in [2]; 5.51 µM in assay [3]; 3.73 µM in assay [4]; 2.34 µM in [5]; 2.97 µM in assay [6]. Besides, the concentration for total growth inhibition (TGI) in assay [7] is 8.39 µM; in [8], 4.06 µM; in assay [9] it was 3.28 µM.
In the case of `COc1cc(C2C3=C(N=C4SC(C(C)=O)=C(C)N42)c2ccccc2CC3)cc(OC)c1OC` (stereo unspecified), the concentration for total growth inhibition (TGI) in assay [1], in assay [2], in assay [3], in [4], in [5] and in assay [6] was above 100 µM in each case. The TGI in assay [7], in [8] and in assay [9] was above 100 µM each time.
Turning to `OCCNc1nc2c(N3CCCC3)nc(N3CCNCC3)nc2nc1NCc1ccccc1`, the concentration for total growth inhibition (TGI) in assay [1] turned out to be 51.4 µM; in assay [2], 30.7 µM; in [3] it was 31.4 µM; in assay [4] it was 28.7 µM; in assay [5] it was 21.8 µM; in assay [6], 24.7 µM. Besides, the total growth inhibition concentration (TGI) was 29.4 µM in [7], 30.8 µM in assay [8] and 28.9 µM in assay [9].
On to `COc1cc(C)cc(OC)c1/C=C/C(=O)O`, for which the TGI in [1], in assay [2], in [3], in assay [4], in assay [5] and in assay [6] was above 100 µM throughout. For the same compound, the TGI in assay [7], in [8] and in assay [9] was above 100 µM each time.
`Cc1ccc(CC(=O)Nc2ccc(NC(=O)CNC(=O)/C=C/c3ccc(-c4ccccc4)cc3)cc2C(=O)c2ccccc2)cc1`: the TGI in [1] came out at 21.1 µM; in assay [2], 4.07 µM; in assay [3] it was 5.37 µM; in assay [4], 35.3 µM; in assay [5], 15.4 µM; in [6], 23.1 µM. The results for the total growth inhibition concentration (TGI) in [7], in [8] and in assay [9] were 20.3 µM, 24 µM and 16.2 µM, respectively.
